The text below walks through data of patent US20190159450A1, “PYRIDINE-BASED COMPOUND INCLUDING ISOXAZOLINE RING AND USE THEREOF AS HERBICIDE” (MOGHU RESEARCH CENTER LTD., priority 2016, published 2019).

Structures are written as SMILES.

Common to all, as to format: in vivo
For data set [1], the system named is maize. The data set is described as follows: Herbicidal activity test, pre-weeds emergence treatment (crop damage). The following applies: Table 4, 200 g/ha, assessed 2 to 3 weeks after spraying, scale 0-10 (0: no effect, 10: complete death). On the procedure: (§1) A rectangular plastic pot with a surface area of 300 cm^2 was filled with sandy loam soil and mixed soil at a ratio of 1:1, and four kinds of weeds including Quamoclit pennata, Abutilon theophrasti Medicus, and Aeschynomene indica, Xanthium strumarium were sown therein. In another pot made in the same way, three kinds of crop seeds including maize, wheat, and rice were sown. The pots were watered and one day later, a medicament was sprayed thereon. The spraying was performed by using a track sprayer (R&D Sprayer, USA) equipped with Teejet 8002EVS (Spraying Systems Co., USA) nozzle, and the spray amount was controlled to be 1000 L/ha. A spray solution was prepared by dissolving the compound of each example or a control material in acetone, and then, adding the same amount of 0.1% (v/v) tween 20 aqueous solution thereto. The spray amount was 200 g/ha. The pots were placed in a greenhouse in which the temperature was maintained at 25° C. to 30° C. during the day and 15° C. to 25° C. during the night, and was regularly watered. After 2 to 3 weeks from the spraying of the compounds or the control material, the efficacy and the damages on each weed and each crop were assessed according to the scale of 0-10 (0: no effect, 10: complete death) scale and the results are shown in Table 3 below.
(§2) Pots for crops and weeds were prepared in the same manner as the test method illustrated in Table 3, and three kinds of weeds selected from Quamoclit pennata, Abutilon theophrasti Medicus, and Aeschynomene indica, Xanthium strumarium were used.

Data set [2] has as its system rice. The data set is described as above. The conditions noted are these: Table 4, 200 g/ha, assessed 2 to 3 weeks after spraying, scale 0-10 (0: no effect, 10: complete death). On the procedure:
as §1, §2

Data set [3] concerns wheat. The description is as above. The conditions noted are these: Table 4, 200 g/ha, assessed 2 to 3 weeks after spraying, scale 0-10 (0: no effect, 10: complete death). As to the method: as §1, §2
In data set [4] the test system is Abutilon theophrasti Medicus. The experiment in a line: Herbicidal activity test, pre-weeds emergence treatment. The following applies: Table 4, 200 g/ha, assessed 2 to 3 weeks after spraying, scale 0-10 (0: no effect, 10: complete death). As to the method: as §1, §2
For data set [5], the system named is Aeschynomene indica. The data set is described as above. The following applies: Table 4, 200 g/ha, assessed 2 to 3 weeks after spraying, scale 0-10 (0: no effect, 10: complete death). As to the method: as §1, §2
In data set [6] the test system is Quamoclit pennata. The data set is described as above. The following applies: Table 4, 200 g/ha, assessed 2 to 3 weeks after spraying, scale 0-10 (0: no effect, 10: complete death). On the procedure:
as §1, §2

Data set [7] has as its system Xanthium strumarium. Described as above. The following applies: Table 4, 200 g/ha, assessed 2 to 3 weeks after spraying, scale 0-10 (0: no effect, 10: complete death). As to the method: as §1, §2
Data set [8] concerns maize. The data set is described as follows: Herbicidal activity test, post-weeds emergence treatment (crop damage). The conditions noted are these: spray amount 200 g/ha for crops, assessed after 2 to 3 weeks, 0: no effect, 10: complete death, Table 6. On the procedure:
as §1
(§3) Pots for crops and weeds were prepared in the same manner as in Experimental Example 1, and then, when the crops and the weeds were raised up to 2 weeks roughly on a third-leaf stage, the compounds and the control material were sprayed thereon in the same manner as described above. The spray amount was 200 g/ha. After 2 to 3 weeks from the spraying of the test substance or the control substance, the efficacy and the damages on each weed and each crop were assessed according to the scale of 0-10 (0: no effect, 10: complete death) scale.
(§4) Pots for crops and weeds were prepared in the same manner as the test method illustrated in Table 5, and four kinds of weeds selected from Quamoclit pennata, Abutilon theophrasti Medicus, and Aeschynomene indica, Xanthium strumarium were used. The spray amount was 200 g/ha for crops and 50 g/ha for weeds.

The test system of data set [9] is rice. Described as above. The following applies: spray amount 200 g/ha for crops, assessed after 2 to 3 weeks, 0: no effect, 10: complete death, Table 6. On the procedure:
as §1, §3, §4

Data set [10] relates to wheat. The data set is described as above. The conditions noted are these: spray amount 200 g/ha for crops, assessed after 2 to 3 weeks, 0: no effect, 10: complete death, Table 6. As to the method: as §1, §3, §4
For data set [11], the system named is Abutilon theophrasti Medicus. The experiment in a line: Herbicidal activity test, post-weeds emergence treatment. The following applies: spray amount 50 g/ha for weeds, assessed after 2 to 3 weeks, 0: no effect, 10: complete death, Table 6. On the procedure:
as §1, §3, §4

Data set [12] deals with Aeschynomene indica. The data set is described as above. The conditions noted are these: spray amount 50 g/ha for weeds, assessed after 2 to 3 weeks, 0: no effect, 10: complete death, Table 6. On the procedure: as §1, §3, §4
The test system of data set [13] is Quamoclit pennata. Described as above. The conditions noted are these: spray amount 50 g/ha for weeds, assessed after 2 to 3 weeks, 0: no effect, 10: complete death, Table 6. On the procedure:
as §1, §3, §4

Data set [14] deals with Xanthium strumarium. The description is as above. The following applies: spray amount 50 g/ha for weeds, assessed after 2 to 3 weeks, 0: no effect, 10: complete death, Table 6. On the procedure:
as §1, §3, §4

For the compound `Cc1ccc(COC(=O)c2nc(C3CC(Br)=NO3)cc(N)c2Cl)cc1` (centres unmarked) [Compound 87, 4-methylbenzyl 4-amino-6-(3-bromo-4,5-dihydroisoxazol-5-yl)-3-chloropicolinate], in the data set on maize [1], the “PRE ZEAMX (maize), damage score” value came to 0. In addition, the “PRE ORYSA (rice), damage score” value in the data set with rice [2] is 0. Moreover, the “PRE TRZAW (wheat), damage score” value in the data set on wheat [3] is given as 0. In [4], the “PRE ABUTH (Abutilon theophrasti Medicus), efficacy score” value (“PRE ABUTH” below) is on record as 6. Moreover, the “PRE AESIN (Aeschynomene indica), efficacy score” value (shortened to “PRE AESIN (Aeschynomene indica)”) in the data set with Aeschynomene indica [5] turned out to be 9. Moreover, the “PRE IPOAN (Quamoclit pennata), efficacy score” value (“PRE IPOAN (Quamoclit pennata)” below) in the data set on Quamoclit pennata [6] was found to be 7. For the same compound, the “PRE XANST (Xanthium strumarium), efficacy score” value (“PRE XANST (Xanthium strumarium)” below) in the data set with Xanthium strumarium [7] was 5. Also, the “ZEAMX (maize) damage, scale of 0-10” value with maize [8] is on record as 1. Further, the “ORYSA (rice) damage, scale of 0-10” value in the data set with rice [9] worked out at 0. In the data set with wheat [10], the “TRZAW (wheat) damage, scale of 0-10” value came out at 0. Further, the “ABUTH (Abutilon theophrasti Medicus) herbicidal efficacy, scale of 0-10” value (from here on “ABUTH … of 0-10”) in [11] is listed as 6. Besides, in the data set with Aeschynomene indica [12], the “AESIN (Aeschynomene indica) herbicidal efficacy, scale of 0-10” value (shortened to “AESIN … of 0-10”) is recorded as 9. In the data set with Quamoclit pennata [13], the “IPOAN (Quamoclit pennata) herbicidal efficacy, scale of 0-10” value (shortened to “IPOAN … of 0-10”) was 4. In addition, the “XANST (Xanthium strumarium) herbicidal efficacy, scale of 0-10” value (“XANST … of 0-10” for short) in the data set with Xanthium strumarium [14] is listed as 10.
For `COC(=O)c1nc(C2(C)CC(Br)=NO2)cc(N)c1Cl` (centres unmarked) [Compound 53, methyl 4-amino-3-chloro-6-(3-bromo-5-methyl-4,5-dihydroisoxazol-5-yl)picolinate], the “PRE ZEAMX (maize), damage score” value with maize [1] turned out to be 0. The “PRE ORYSA (rice), damage score” value with rice [2] is listed as 0. Besides, in the data set on wheat [3], the “PRE TRZAW (wheat), damage score” value was 0. Moreover, the “PRE ABUTH” value in [4] is 10. Moreover, the “PRE AESIN (Aeschynomene indica)” value with Aeschynomene indica [5] was 10. Besides, in the data set on Quamoclit pennata [6], the “PRE IPOAN (Quamoclit pennata)” value is recorded as 6. In addition, the “PRE XANST (Xanthium strumarium)” value with Xanthium strumarium [7] amounted to 9. For the same compound, the “ZEAMX (maize) damage, scale of 0-10” value in the data set on maize [8] is given as 0. For the same compound, in the data set with rice [9], the “ORYSA (rice) damage, scale of 0-10” value was determined as 0. In addition, the “TRZAW (wheat) damage, scale of 0-10” value with wheat [10] was 1. Also, the “ABUTH … of 0-10” value in data set [11] was determined as 6. Moreover, the “AESIN … of 0-10” value with Aeschynomene indica [12] is 9. Also, the “IPOAN … of 0-10” value in the data set with Quamoclit pennata [13] turned out to be 4. In addition, the “XANST … of 0-10” value with Xanthium strumarium [14] was 9.
For the compound `CC1(c2cc(N)c(Cl)c(C(=O)O)n2)CC(Br)=NO1` (centres unmarked) [Compound 54, 4-amino-3-chloro-6-(3-bromo-5-methyl-4,5-dihydroisoxazol-5-yl)picolinic acid], the “PRE ZEAMX (maize), damage score” value in the data set on maize [1] was 0. Besides, the “PRE ORYSA (rice), damage score” value in the data set with rice [2] is given as 0. In the data set on wheat [3], the “PRE TRZAW (wheat), damage score” value is given as 0. The “PRE ABUTH” value in [4] came to 10. Also, the “PRE AESIN (Aeschynomene indica)” value with Aeschynomene indica [5] was found to be 10. Also, the “PRE IPOAN (Quamoclit pennata)” value in the data set on Quamoclit pennata [6] amounted to 5. Besides, in the data set with Xanthium strumarium [7], the “PRE XANST (Xanthium strumarium)” value is 8. For the same compound, in the data set with maize [8], the “ZEAMX (maize) damage, scale of 0-10” value turned out to be 0. Further, the “ORYSA (rice) damage, scale of 0-10” value in the data set on rice [9] was determined as 0. In addition, the “TRZAW (wheat) damage, scale of 0-10” value in the data set on wheat [10] was 0. Besides, the “ABUTH … of 0-10” value in data set [11] turned out to be 4. Further, the “AESIN … of 0-10” value in the data set on Aeschynomene indica [12] is reported as 6. Besides, the “IPOAN … of 0-10” value in the data set with Quamoclit pennata [13] is reported as 5. Further, in the data set on Xanthium strumarium [14], the “XANST … of 0-10” value is given as 8.
As to `CCOC(=O)c1nc(C2CC(Br)=NO2)cc(N)c1Cl` (centres unmarked) [Compound 73, ethyl 4-amino-6-(3-bromo-4,5-dihydroisoxazol-5-yl)-3-chloropicolinate], the “PRE ZEAMX (maize), damage score” value with maize [1] is on record as 0. The “PRE ORYSA (rice), damage score” value in the data set on rice [2] came to 0. Moreover, in the data set on wheat [3], the “PRE TRZAW (wheat), damage score” value worked out at 0. The “PRE ABUTH” value in [4] came out at 10. In the data set on Aeschynomene indica [5], the “PRE AESIN (Aeschynomene indica)” value was found to be 10. In addition, the “PRE IPOAN (Quamoclit pennata)” value with Quamoclit pennata [6] came out at 6. Moreover, the “PRE XANST (Xanthium strumarium)” value in the data set on Xanthium strumarium [7] was found to be 9. The “ZEAMX (maize) damage, scale of 0-10” value in the data set on maize [8] is recorded as 0. Besides, the “ORYSA (rice) damage, scale of 0-10” value with rice [9] is 0. Moreover, the “TRZAW (wheat) damage, scale of 0-10” value with wheat [10] stood at 1. The “ABUTH … of 0-10” value in data set [11] is recorded as 6. In the data set with Aeschynomene indica [12], the “AESIN … of 0-10” value is recorded as 9. Moreover, the “IPOAN … of 0-10” value in the data set on Quamoclit pennata [13] is given as 4. Also, the “XANST … of 0-10” value in the data set with Xanthium strumarium [14] worked out at 9.
